Results from ChEMBL document CHEMBL1155629, “Cytotoxic prenyleudesmane diterpenes from the fruits of Dysoxylum kuskusense” (2000).
In brackets after ≈: the same amount, converted by molar mass.

How the values were obtained:
Type in all cases: functional
Conditions in all cases: read-out: ED50 (the source's name)
[1] = test system: P388; assay: Cytotoxicity against mouse P388 cells
[2] = test system: A549; assay: Cytotoxicity against human A549 cells
[3] = test system: HT-29; assay: Cytotoxicity against human HT29 cells

Row | Compound | EC50 [1] [µg/mL] | EC50 [2] [µg/mL] | EC50 [3] [µg/mL]
1 | CC1=CC(=O)C[C@]2(C)CCC(/C(C)=C/C=C/C(C)(C)O)C[C@@H]12 (stereo partly specified) [DYSOKUSONE E] | 2.64 (≈ 8.73 µM) | 3.76 (≈ 12.4 µM) | 4.89 (≈ 16.2 µM)
2 | CC(C)=CC(=O)/C=C(\C)C1CC[C@@]2(C)CC(=O)C=C(C)[C@@H]2C1 (stereo partly specified) [DYSOKUSONE D] | 3.87 (≈ 12.9 µM) | 2.39 (≈ 7.95 µM) | 4.68 (≈ 15.6 µM)
